# Measured values from PMC7558026, “Exploring and applying the substrate promiscuity of a C-glycosyltransferase in the chemo-enzymatic synthesis of bioactive C-glycosides” (Nature Communications, 2020).
# System: AbCGT
# Assay: Effects of pH, temperature and divalent metal ions on AbCGT activity (phloretin 17 + UDP-Glc)
# Assay type: biochemical, Aloe barbadensis
# Method: To assay for the optimal reaction temperature, the reaction mixtures were incubated at pH 11.0 and different temperatures (15–60 °C). To test the necessity of divalent metal ions for AbCGT, BaCl2, CaCl2, CoCl2, CuCl2, FeCl2, MgCl2, MnCl2, ZnCl2, and EDTA were used individually at a final concentration of 5 mM. […] For quantification, three parallel assays were routinely carried out.
# [1] = pH 5.0, citric acid-sodium citrate buffer, reaction-2
# [2] = pH 5.0, citric acid-sodium citrate buffer, reaction-3
# [3] = pH 6.0, Na2HPO4-NaH2PO4 buffer, reaction-1
smiles,measurement,setting,value
"O=C(CCc1ccc(O)cc1)c1c(O)cc(O)cc1O [Compound 17, phloretin]",conversion rates of Phloretin,"Temperature 15, reaction-1",11
same,relative activity,"Temperature 15, reaction-1",11.0
same,conversion rates of Phloretin,"Temperature 15, reaction-2",10.9
same,relative activity,"Temperature 15, reaction-2",10.9
same,conversion rates of Phloretin,"Temperature 15, reaction-3",12.9
same,relative activity,"Temperature 15, reaction-3",12.9
same,conversion rates of Phloretin,"Temperature 25, reaction-1",18.8
same,relative activity,"Temperature 25, reaction-1",18.8
same,conversion rates of Phloretin,"Temperature 25, reaction-2",21.4
same,relative activity,"Temperature 25, reaction-2",21.4
same,conversion rates of Phloretin,"Temperature 25, reaction-3",24.7
same,relative activity,"Temperature 25, reaction-3",24.7
same,conversion rates of Phloretin,"Temperature 30, reaction-1",39.8
same,relative activity,"Temperature 30, reaction-1",39.9
same,conversion rates of Phloretin,"Temperature 30, reaction-2",36.9
same,relative activity,"Temperature 30, reaction-2",37.0
same,conversion rates of Phloretin,"Temperature 30, reaction-3",38.5
same,relative activity,"Temperature 30, reaction-3",38.6
same,conversion rates of Phloretin,"Temperature 35, reaction-1",64.8
same,relative activity,"Temperature 35, reaction-1",64.9
same,conversion rates of Phloretin,"Temperature 35, reaction-2",57.8
same,relative activity,"Temperature 35, reaction-2",57.9
same,conversion rates of Phloretin,"Temperature 35, reaction-3",60.7
same,relative activity,"Temperature 35, reaction-3",60.8
same,conversion rates of Phloretin,"Temperature 40, reaction-1",78.1
same,relative activity,"Temperature 40, reaction-1",78.3
same,conversion rates of Phloretin,"Temperature 40, reaction-2",81
same,relative activity,"Temperature 40, reaction-2",81.2
same,conversion rates of Phloretin,"Temperature 40, reaction-3",73.2
same,relative activity,"Temperature 40, reaction-3",73.3
same,conversion rates of Phloretin,"Temperature 45, reaction-1",99.4
same,relative activity,"Temperature 45, reaction-1",99.6
same,conversion rates of Phloretin,"Temperature 45, reaction-2",100
same,relative activity,"Temperature 45, reaction-2",100.2
same,conversion rates of Phloretin,"Temperature 45, reaction-3",100
same,relative activity,"Temperature 45, reaction-3",100.2
same,conversion rates of Phloretin,"Temperature 50, reaction-1",97.7
same,relative activity,"Temperature 50, reaction-1",97.9
same,conversion rates of Phloretin,"Temperature 50, reaction-2",98
same,relative activity,"Temperature 50, reaction-2",98.2
same,conversion rates of Phloretin,"Temperature 50, reaction-3",99.1
same,relative activity,"Temperature 50, reaction-3",99.3
same,conversion rates of Phloretin,"Temperature 55, reaction-1",96.5
same,relative activity,"Temperature 55, reaction-1",96.7
same,conversion rates of Phloretin,"Temperature 55, reaction-2",95.7
same,relative activity,"Temperature 55, reaction-2",95.9
same,conversion rates of Phloretin,"Temperature 55, reaction-3",93.3
same,relative activity,"Temperature 55, reaction-3",93.5
same,conversion rates of Phloretin,"Temperature 60, reaction-1",75.4
same,relative activity,"Temperature 60, reaction-1",75.6
same,conversion rates of Phloretin,"Temperature 60, reaction-2",85.7
same,relative activity,"Temperature 60, reaction-2",85.9
same,conversion rates of Phloretin,"Temperature 60, reaction-3",80
same,relative activity,"Temperature 60, reaction-3",80.2
same,conversion rates of Phloretin,"pH 5.0, citric acid-sodium citrate buffer, reaction-1",0.2
same,conversion rates of Phloretin,[1],0.1
same,relative activity,[1],0.1
same,conversion rates of Phloretin,[2],0.2
same,relative activity,[2],0.2
same,conversion rates of Phloretin,[3],23.7
same,relative activity,[3],23.8
same,conversion rates of Phloretin,"pH 6.0, Na2HPO4-NaH2PO4 buffer, reaction-2",25.1
